In US12286632B2, “Rationally-designed synthetic peptide shuttle agents for delivering polypeptide cargos from an extracellular space to the cytosol and/or nucleus of a target eukaryotic cell, uses thereof, methods and kits relating to same” (Feldan Bio Inc., priority 2016, dated 2025):
Like-named read-outs stand apart in the source and are kept apart here. Ends that are not written are not given here.

Columns and labels:
HeLa cells [1] = experiment: GFP-NLS protein transduction assay (flow cytometry: Pos cells %, viability %, relative fluorescence intensity; microscopy); conditions: for FIG. 13B Cell viability (%) (±St Dev.; n = 3): Table 5.1; for FIG. 13B Cell viability (%) (±St Dev.; n = 3) / FIG. 21B Cell viability (%) (±St. Dev.; n = 3): GFP-NLS 5 μM, HeLa, 1 hour; for FIG. 21B Cell viability (%) (±St. Dev.; n = 3): Table 8.1
HeLa cells [2] = experiment: Plasmid DNA (pEGFP-C1) transfection by peptides (% cells with GFP signal, cell viability); conditions: DNA transfection in HeLa cells using peptides; pEGFP-C1 plasmid
HeLa cells [3] = experiment: Transduction of anti-NUP98 antibody, immuno-labelling and fluorescence microscopy; type: cell-based, Human; conditions: FSD19 7.5 μM; 4 hours
Method: Anti-NUP98 antibody […] was co-incubated with 7.5 μM of FSD19 and exposed to HeLa cells for 4 hours. Cells are washed, fixed with paraformaldehyde 4%, permeabilized with 0.1% Triton™ and labeled with a fluorescently labeled (Alexa™ Fluor 488) goat anti-rat antibody. Antibody bound to the perinuclear membrane and cell nuclei were visualized by fluorescence microscopy at 20× (upper panels) and 40× (lower panels).

in vitro [4] = conditions: human, HeLa cells
in vitro [5] = conditions: human, THP-1 cells
Method: (§3) One day before the transduction assay was performed, cells in exponential growth phase were harvested and plated in a 96-well plate (20,000 cells per well). The cells were incubated overnight in appropriate growth media containing FBS (see Example 1). The next day, in separate sterile 1.5 mL tubes, cargo protein at the indicated concentration was pre-mixed (pre-incubated) for 1 or 10 min (depending on the protocol) at 37° C. with the peptide(s) to be tested shuttle agents (0.5 to 5 μM) in 50 μL of fresh medium without serum (unless otherwise specified). The media in wells was removed and the cells were washed three times with freshly prepared phosphate buffered saline (PBS) previously warmed at 37° C. The cells were incubated with the cargo protein/shuttle agent mixture at 37° C. for the indicated time (e.g., 1, 5 or 60 min). After the incubation, the cells were quickly washed three times with freshly prepared PBS and/or heparin (0.5 mg/mL) previously warmed at 37° C. The washes with heparin were required for human THP-1 blood cells to avoid undesired cell membrane-bound protein background in subsequent analyses (microscopy and flow cytometry). The cells were finally incubated in 50 μL of fresh medium with serum at 37° C. before analysis.
(§4) One day before the transduction assay was performed, suspension cells in exponential growth phase were harvested and plated in a 96-well plate (20,000 cells per well). The cells were incubated overnight in appropriate growth media containing serum (see Example 1). The next day, in separate sterile 1.5-mL tubes, peptides were diluted in sterile distilled water at room temperature (if the cargo is or comprised a nucleic acid, nuclease-free water was used). Cargo protein(s) were then added to the peptides and, if necessary, sterile PBS or cell culture medium (serum-free) was added to obtain the desired concentrations of shuttle agent and cargo in a sufficient final volume to resuspend the cells (e.g., 10 to 100 μL per well in a 96-well plate). The shuttle agent/peptide was then immediately used for experiments. At least three controls were included for each experiment, including: (1) peptide alone (e.g., at highest concentration tested); (2) cargo alone; and (3) without any cargo or shuttle agent. The cells were centrifuged for 2 minutes at 400g, the medium was then removed and the cells were resuspended in PBS previously warmed at 37° C. The cells were centrifuged again 2 minutes at 400g, the PBS removed, and the cells were resuspended with the cargo protein/peptide mixture at 37° C. for the desired length of time. After that, 200 μL of complete medium was added directly on the cells. Cells were centrifuged for 2 minutes at 400g and the medium was removed. The pellet was resuspended and washed in 200 μL of PBS previously warmed at 37° C. After another centrifugation, the PBS was removed and the cells were resuspended in 50 μL of trypsin-EDTA solution for 2 min. 200 of complete medium was directly added and cells were centrifuged for 2 minutes at 400g. The medium was removed and the cells were resuspended in 200 μL of complete medium.
(§5) The cells incubated in 50 μL of fresh medium were directly observed by microscopy (Bright-field and fluorescence) at different power fields (4× to 40×). The cells were observed using a CoolSNAP-PRO™ camera (Series A02D874021) and images were acquired using the Image-Proplus™ software.
(§6) The fluorescence of GFP was quantified using flow cytometry (Accuri C6, Becton, Dickinson and Company (BD)).

THP-1 cells = experiment: GFP-NLS protein transduction assay (flow cytometry: Pos cells %, viability %, relative fluorescence intensity; microscopy); conditions: for Mean % cells with GFP signal (±St. Dev.; n = 3): THP-1 cells, GFP-NLS 10 μM
Method: as §3, §4, §5, §6

B2M genomic DNA sequence = experiment: T7E1 DNA cleavage assay / % INDELs after CRISPR/Cas9-NLS or CRISPR/Cpf1-NLS delivery (HeLa, THP-1, NK, T cells); type: cell-based, Human; conditions: CRISPR/Cpf1 1.33 μM, crRNA 2 μM; THP-1 and NK cells; different concentrations and exposure times
From the text: (§1) The T7 endonuclease I (T7E1) can be used to detect on-target CRISPR/Cas genome editing events in cultured cells. As an overview, genomic DNA from target cells is amplified by PCR. The PCR products are then denatured and reannealed to allow heteroduplex formation between wild-type DNA and CRISPR/Cas-mutated DNA. T7E1, which recognizes and cleaves mismatched DNA, is used to digest the heteroduplexes. The resulting cleaved and full-length PCR products are visualized by gel electrophoresis.
(§2) The T7E1 assay was performed with the Edit-R™ Synthetic crRNA Positive Controls (Dharmacon #U-007000-05) and the T7 Endonuclease I (NEB, Cat #M0302S). After the delivery of the CRISPR/Cas complex, cells were lysed in 100 μL of Phusion™ High-Fidelity DNA polymerase (NEB #M0530S) laboratory with additives. The cells were incubated for 15-30 minutes at 56° C., followed by deactivation for 5 minutes at 96° C. The plate was briefly centrifuged to collect the liquid at bottom of the wells. 50-μL PCR samples were set up for each sample to be analyzed. The PCR samples were heated to 95° C. for 10 minutes and then slowly (>15 minutes) cooled to room temperature. PCR product (-5 μL) was then separated on an agarose gel (2%) to confirm amplification. 15 μL of each reaction was incubated with T7E1 nuclease for 25 minutes at 37° C. Immediately, the entire reaction volume was run with the appropriate gel loading buffer on an agarose gel (2%).
Cas9-NLS recombinant protein was prepared as described in Example 13.1. Cpf1-NLS recombinant protein was prepared as described in Example G.2. A mix composed of a Cas9-NLS recombinant protein with its respective crRNAltracrRNA, or a Cpf1-NLS recombinant protein with its respective single guide crRNA(s) (see below) targeting a nucleotide sequence of the B2M gene, was co-incubated with different concentrations of the peptides FSD10, FSD18, FSD19, FSD21, FSD22, or FSD23 and incubated with HeLa, THP-1 or NK cells for 90 sec in PBS, or for 1 h in medium without serum, or for 48 h in medium with serum, using the transduction protocols as generally described in Example 3.1a. Cells were then washed with PBS and harvested to proceed with the T7E1 protocol assay as described in Example 13.4.
FIGS. 52A-52D show the results of the cleavage of the targeted genomic B2M DNA sequence after the delivery of CRISPR/Cpf1 (1.33 μM) with crRNA−1 or crRNA−2 (2 μM) in the absence (“-ctrl”) or in the presence of the peptides FSD10, FSD18, FSD19, FSD21 or FSD23 used at different concentrations, exposure times, and in different types of cells: THP-1 (FIG. 52A), and NK (FIGS. 52B, 52C, 52D), after separation by agarose gel electrophoresis. […] Gel lanes were loaded in duplicate. Thin dashed arrows indicate the bands corresponding to the target gene, and thick solid arrows indicate the bands corresponding to the cleavage products of this target gene, which indicate the successful transduction of fully functional CRISPR genome editing complexes. We used a Bio-Rad ImageLab™ software (Version 5.2.1, Bio-Rad, http://www.bio-rad.com/en-ca/product/image-lab-software?tab=Download) to quantify the relative signal intensities of each of the different bands directly on the gels. The sum of all the bands in a given lane corresponds to 100% of the signal, and the numerical value in italics at the bottom of each lane is the sum of the relative signals (%) of only the two cleavage product bands (thick solid arrows). No cleavage product bands were found in the negative controls (“-ctrl”, i.e., to cells that were exposed to CRISPR system in the absence of FSD peptide).
Cas9-NLS recombinant protein was prepared as described in Example 13.1. Cpf1-NLS recombinant protein was prepared as described in Example G.2. […]

in vitro [6] = conditions: human, HeLa cells; remark: listed apart in the source
HeLa cells [7] = experiment: TAT-GFP protein transduction assay (flow cytometry, cell viability, fluorescence microscopy); type: cell-based, Human; conditions: TAT-GFP 5 μM, 1 hour
Method: Briefly, TAT-GFP recombinant protein (5 μM) was co-incubated with different concentrations of CM18-TAT-Cys (0, 0.5, 1, 3, or 5 μM) and then exposed to HeLa cells for 1 hour.

primary myoblasts = experiment: Calcein endosomal escape assay, quantification by flow cytometry (mean counts, Mean Factor); type: cell-based, Human; conditions: myoblast cells
From the text: Calcein is a membrane-impermeable fluorescent molecule that is readily internalized by cells when administered to the extracellular medium. Its fluorescence is […] and calcein self-quenches at higher concentrations. Once internalized, calcein becomes sequestered at high concentrations in cell endosomes and can be visualized by fluorescence microscopy as a punctate pattern. Following endosomal leakage, calcein is released to the cell cytoplasm and this release can be visualized by fluorescence microscopy as a diffuse pattern.
The cells were allowed to attach by incubating overnight in appropriate growth media, as described in Example 1. The next day, the media in wells was removed and replaced with 50 μL of fresh media without serum containing 62.5 μg/mL (100 μM) of calcein, except for HEK293A (250 μg/mL, 400 μM). […]
Untreated calcein-loaded cells were used as a control to distinguish cells having a baseline of fluorescence due to endosomally-trapped calcein from cells having increased fluorescence due to release of calcein from endosomes. Fluorescence signal means (“mean counts”) were analyzed for endosomal escape quantification. In some cases, the “Mean Factor” was calculated, which corresponds to the fold-increase of the mean counts relative to control (untreated calcein-loaded cells). […] The cellular mortality was monitored with the percentage of cells in the total events scanned. […]

HeLa cells [8] = experiment: FITC-labeled anti-tubulin antibody transduction assay (flow cytometry, cell viability, microscopy); conditions: FITC-labeled anti-tubulin antibody 0.5 μM, HeLa, 1 hour; shuttle 3.5 μM
Method: The delivery and microscopy protocols are described in Example 3.
HeLa cells were cultured and tested in the protein transduction assay described in Example 3.1. […] The cells were subjected to flow cytometry analysis as described in Example 3.3.

HeLa cells [9] = type: cell-based, Human; conditions: GFP (5 μM), 1 hour
Method: One day before the transduction assay was performed, cells in exponential growth phase were harvested and plated in a 96-well plate (20,000 cells per well). The cells were incubated overnight in appropriate growth media containing FBS (see Example 1). The next day, in separate sterile 1.5 mL tubes, cargo protein at the indicated concentration was pre-mixed (pre-incubated) for 1 or 10 min (depending on the protocol) at 37° C. with the peptide(s) to be tested shuttle agents (0.5 to 5 μM) in 50 μL of fresh medium without serum (unless otherwise specified). The media in wells was removed and the cells were washed three times with freshly prepared phosphate buffered saline (PBS) previously warmed at 37° C. The cells were incubated with the cargo protein/shuttle agent mixture at 37° C. for the indicated time (e.g., 1, 5 or 60 min). After the incubation, the cells were quickly washed three times with freshly prepared PBS and/or heparin (0.5 mg/mL) previously warmed at 37° C. […] The cells were finally incubated in 50 μL of fresh medium with serum at 37° C. before analysis.
The Olympus filter U-MF2™ (C54942-Exc495/Em510) was used to observe GFP and FITC-labeled antibody fluorescent signals. […] The Olympus filter U-MWU2™ (Exc330/Em385) was used to observe DAPI or Blue Hoechst fluorescent signals. The cells incubated in 50 μL of fresh medium were directly observed by microscopy (Bright-field and fluorescence) at different power fields (4× to 40×). The cells were observed using a CoolSNAP-PRO™ camera (Series A02D874021) and images were acquired using the Image-Proplus™ software.
The fluorescence of GFP was quantified using flow cytometry (Accuri C6, Becton, Dickinson and Company (BD)). Untreated cells were used to establish a baseline in order to quantify the increased fluorescence due to the internalization of the fluorescent protein in treated cells. The percentage of cells with a fluorescence signal above the maximum fluorescence of untreated cells, “mean %” or “Pos cells (%)”, is used to identify positive fluorescent cells. “Relative fluorescence intensity (FL1−A)” corresponds to the mean of all fluorescence intensities from each cell with a fluorescent signal after fluorescent protein delivery with the shuttle agent. Also, the events scanned by flow cytometry corresponding to cells (size and granularity) were analyzed. The cellular toxicity (% cell viability) was monitored comparing the percentage of cells in the total events scanned of treated cells comparatively to untreated cells.

HeLa cells [10] = experiment: Cytotoxic activity of NK92 against HeLa cells with GSK3 inhibitor; type: cell-based, Human; conditions: data not shown
[11] = tested on: NKG2A genomic DNA sequence; experiment: T7E1 DNA cleavage assay / % INDELs after CRISPR/Cpf1-NLS delivery (NK and NK-92 cells); type: cell-based, Human; conditions: gene target NKG2A, CRISPR/Cpf1 1.33 μM, crRNA 2 μM, peptide 6 μM, 1 min in PBS, n=2
From the text: as §1
as §2, with “Immediately, the entire reaction volume was run with the appropriate gel loading buffer on an agarose gel (2%).” left out

HHHHHHLLKLWSRLLKTWTQGRRLKAKSAQASTRQAHHHHHH [FSD19]
Mean % cells with GFP signal (±St. Dev.; n = 3) (HeLa cells [1]; Table B2, HeLa cells, GFP-NLS cargo): 55.17 ± 4.62%
Mean % cells with GFP signal (±St. Dev.; n = 3) (HeLa cells [2]): 0.24 ± 0.00%
functionality of transduced anti-NUP98 antibody (microscopy) (HeLa cells [3]): anti-NUP98 antibody retained its functionality inside the cell following its transduction
viability (in vitro [4]; Cell viability (%) (±St Dev.; n = 3)): 80.6 ± 5.36%
viability at 15 s, 5 µM (in vitro [5]): 60.5 ± 5.71%
viability at 0.5 min, 2 µM (in vitro [5]): 68.7 ± 4.29%
Mean % cells with GFP signal (±St. Dev.; n = 3) (THP-1 cells; peptide 2 μM, incubation 0.5 min): 55.4 ± 4.63%
Mean % cells with GFP signal (±St. Dev.; n = 3) (THP-1 cells; peptide 5 μM, incubation 0.25 min): 61.5 ± 6.07%
delivery of CRISPR/Cpf1 complex, cleavage of genomic B2M (in words) (B2M genomic DNA sequence): successful delivery of the CRISPR genome-editing complexes to the nucleus
viability (in vitro [6]): 97.4 ± 2.07%

KWKLFKKIGAVLKVLTTGYGRKKRRQRRRC [CM18-TAT-Cys]
FIG. 13B Cell viability (%) (±St Dev.; n = 3) (HeLa cells [1]; shuttle 0.5 μM): 87.6 ± 4%
FIG. 13B Cell viability (%) (±St Dev.; n = 3) (HeLa cells [1]; shuttle 1 μM): 93 ± 8%
FIG. 13B Cell viability (%) (±St Dev.; n = 3) (HeLa cells [1]; shuttle 5 μM): 93 ± 4%
FIG. 21B Cell viability (%) (±St. Dev.; n = 3) (HeLa cells [1]; shuttle 3 μM): 89 ± 5.37%
FIG. 21B Cell viability (%) (±St. Dev.; n = 3) (HeLa cells [1]; shuttle 5 μM): 81 ± 6.34%
FIG. 11B Cell viability (%) (±St. Dev.; n = 3) (HeLa cells [7]; shuttle 0.5 μM): 84.36 ± 5%
FIG. 11B Cell viability (%) (±St. Dev.; n = 3) (HeLa cells [7]; shuttle 1 μM): 89.26 ± 5.26%
FIG. 11B Cell viability (%) (±St. Dev.; n = 3) (HeLa cells [7]; shuttle 3 μM): 93.18 ± 6.28%
FIG. 11B Cell viability (%) (±St. Dev.; n = 3) (HeLa cells [7]; shuttle 5 μM): 95.14 ± 5.28%
peptide concentrations associated with an increase in cell toxicity (primary myoblasts): above 10 μM
viability at 1 h, 1 µM (in vitro [4]): 94 ± 4.28%
FIG. 17B Cell viability (%) (±St Dev.; n = 3) (THP-1 cells; Table 5.5, GFP-NLS 5 μM, THP-1, 5 minutes, shuttle 1 μM): 85 ± 6%
FIG. 19B Cell viability (%) (± St. Dev.; n = 3) (HeLa cells [8]): 95 ± 4.06%
viability (in vitro [6]): 96.3 ± 1.86%
Cell viability (%) (HeLa cells [9]; shuttle 0.5 μM): 88.4 ± 6%
Cell viability (%) (HeLa cells [9]; shuttle 1 μM): 90 ± 6%
Cell viability (%) (HeLa cells [9]; shuttle 3 μM): 91 ± 5%
Cell viability (%) (HeLa cells [9]; shuttle 5 μM): 90 ± 7%

Cn1cc(C2=C(c3ccc(Cl)cc3Cl)C(=O)NC2=O)c2ccccc21 [SB216763]
effect on cytotoxic activity of NK92 (HeLa cells [10]): enhances the cytotoxic activity of NK92 against HeLa cells

FSD100 (HHHHHHFLKIWSRLIKIWTQGRRKGAQAAFRHHHHHH)
% INDELs [11]: 16%

FSD101 (HHHHHHRFAAQAGKRRGQTWIKILRSWIKLF)
% INDELs [11]: 17%
